The record followed here is ChEMBL document CHEMBL4004820 (J Med Chem, 2017).

The subject of data set [1] is Influenza A virus (A/Udorn/307/1972(H3N2)).
Another data set deals with MDCK. Description: Cytotoxicity against MDCK cells measured after 72 hrs et staining-based microscopic analysis. Format: cell-based, Canis lupus familiaris. The following applies: dog.
Data set [2] in a line: Antiviral activity against Influenza A virus (A/WSN/1933(H1N1)) expressing wild-type M2 proton channel infected in MDCK cells assessed as reduction in cytopathic effect after 48 hrs by crystal violet staining-based microscopic analysis. Format: functional, cell-based. (In general: Damage to the host cells serves as the signal in cytopathic effect assays.)
Data set [3] has as its system Influenza A virus (A/Udorn/307/1972(H3N2)). This is another data set of the same source.
For data set [4] the test system is unchanged. The source holds these as a separate data set.
The test system of data set [5] is Influenza A virus (A/California/07/2009(H1N1)). Description: Inhibition of full-length Influenza A virus (A/California/07/2009(H1N1)) M2 proton channel expressed in HEK cells assessed as inhibition of low-pH-dependent inward proton currents at 100 uM and pH 5.5 measured after 30 mins in presence of CaCl2 by electrophysiology method relative to control. Format: cell-based.

For data set [6] the test system is unchanged. Description: Inhibition of full-length Influenza A virus (A/California/07/2009(H1N1)) M2 proton channel expressed in HEK cells assessed as inhibition of low-pH-dependent inward proton currents at 100 uM and pH 5.5 measured after 3 mins in presence of CaCl2 by electrophysiology method relative to control. Format: cell-based.
Data set [7] in a line: Binding affinity to Influenza virus A (A/Udorn/72 (H3N2)) M2 protein at pH 7.5 in presence of KCl by electrophysiology method. Also on record: species or system Influenza A virus (A/udorn/1972(H3N2)).

Molecules are shown by their SMILES. A value given as a limit tells only on which side of the number the result lay.

In data set [1], `CCC1(N)C2CC3CC(C2)CC1C3` (stereo not drawn) registered a -TdeltaS of -1.38 kcal/mol. For the same compound, in the data set on MDCK, the CC50 (as a rule, the concentration that lowers cell viability or growth by half) was over 100 µM. Further, the IC50 (as a rule, the midpoint of a concentration-inhibition curve) in data set [2] was “Not Active”.

Consider `CN1CCCC12C1CC3CC(C1)CC2C3` (stereo not drawn), for which, in data set [1], the -TdeltaS is -4.46 kcal/mol. For the same compound, the 50% cytotoxic concentration (CC50) with MDCK was over 100 µM. Further, the IC50 result in data set [2] was “Not Active”.

As for `CCOC(=O)C1=C[C@@H](OC(CC)CC)[C@H](NC(C)=O)[C@@H](N)C1` [OSELTAMIVIR], the concentration for half-maximal inhibition (IC50) in data set [2] (Influenza A virus, MDCK, 48 h, read-out: IC50) came out at 0.02 µM.

As to `CCCC1(N)C2CC3CC(C2)CC1C3` (stereo not drawn), the Activity in data set [3] turned out to be 22 degree; in data set [4] it was 32 degree. This compound registered a -TdeltaS in data set [1] of -0.932 kcal/mol. The same compound had a CC50 in the data set with MDCK of over 100 µM. In addition, in data set [2], the IC50 entry is on record as “Not Active”.

In the case of `NC1C2CC3CC(C2)CC1C3` (stereo not drawn), the -TdeltaS in data set [1] is -0.93 kcal/mol. Besides, it took 70.5 µM to reach half-maximal cytotoxicity with MDCK (CC50). In data set [2], the 50% inhibitory concentration (IC50) entry is on record as “Not Active”.

`C1CNC2(C1)C1CC3CC(C1)CC2C3` (stereo not drawn): the inhibition – broadly, the share of the control response that was lost under treatment – was determined as 5% in data set [5] and 4% in data set [6]. For the same compound, the -TdeltaS in data set [1] is -3.97 kcal/mol. In the data set with MDCK, this compound gave a half-maximal cytotoxic concentration (CC50) of over 100 µM. In addition, the half-inhibitory concentration (IC50) entry in data set [2] is recorded as “Not Active”.

On to `NC12CC3CC(CC(C3)C1)C2` [AMANTADINE], for which the dissociation constant Kd (in general, the free concentration of one partner at which half of the binding sites on the other are occupied at equilibrium, for simple one-to-one binding) in data set [7] was 9 µM. The Activity in data set [3] was 22 degree; in data set [4] it was 32 degree. The same compound displayed a -TdeltaS in data set [1] of -1.11 kcal/mol. In the data set with MDCK, the 50% cytotoxic concentration (CC50) was over 100 µM. Further, in data set [2], the IC50 entry is “Not Active”.

In the case of `NC1(C23CC4CC(CC(C4)C2)C3)CCCCC1`, the CC50 in the data set on MDCK was over 100 µM. The concentration for half-maximal inhibition (IC50) result in data set [2] is recorded as “Not Active”.

In the case of `CC1(N)C2CC3CC(C2)CC1C3` (stereo not drawn), in data set [1], the -TdeltaS is -1.51 kcal/mol. In the data set with MDCK, the cytotoxic concentration (CC50) worked out at 25.6 µM. Also, in data set [2], the 50% inhibitory concentration (IC50) result is “Not Active”.

Take `NC1(C23CC4CC(CC(C4)C2)C3)CCCC1`: the inhibition in data set [5] and in data set [6] was 4% in each case. In addition, in the data set with MDCK, the CC50 is over 100 µM. Moreover, in data set [2], the IC50 result is on record as “Not Active”.

On to `CC12CC3CC(CC(C3)C13CCCN3)C2` (stereo not drawn), for which the -TdeltaS in data set [1] was -3 kcal/mol. For the same compound, in the data set on MDCK, the cytotoxic concentration (CC50) was over 100 µM. Besides, the concentration for half-maximal inhibition (IC50) result in data set [2] is recorded as “Not Active”.
